≈ marks a conversion by molar mass, not a printed value. Where “and” joins values, the source holds several entries; their conditions need not be identical. Identical values can stand only once. Values belong to the molecule of their own block, whether it stands above or below them.
Key:
Experiment in all cases: ≥ marks a high value that may be exact or a test limit, other limits are often not marked, values filed in µg/mL are converted to µM
[1] = test system: Pseudomonas syringae
[2] = test system: Xanthomonas axonopodis pv. phaseoli ATCC 9563
[3] = test system: Candida albicans NCPF 1467
[4] = test system: Escherichia coli NCTC 10418
[5] = test system: Staphylococcus aureus ATCC 12493
[6] = test system: Staphylococcus aureus NCTC 10788
[7] = test system: Aspergillus niger ATCC 16404
[8] = test system: Candida albicans ATCC 10231
[9] = test system: Candida glabrata ATCC 15126
[10] = test system: Enterococcus faecalis PCM 2673
[11] = test system: Escherichia coli ATCC 23506
[12] = test system: Escherichia coli ATCC 25922
[13] = test system: Klebsiella pneumoniae ATCC 700603
[14] = test system: Pseudomonas aeruginosa ATCC 9027
[15] = test system: Staphylococcus aureus ATCC 25923
[16] = test system: Staphylococcus aureus ATCC 9144
[17] = test system: Streptococcus pneumoniae ATCC 49619
[18] = test system: Escherichia coli 1
[19] = test system: Escherichia coli C600
[20] = test system: Escherichia coli
[21] = test system: Klebsiella pneumoniae 1
[22] = test system: Klebsiella pneumoniae 2
[23] = test system: Pseudomonas aeruginosa 1
[24] = test system: Pseudomonas aeruginosa 2
[25] = test system: Pseudomonas aeruginosa PAO1
[26] = test system: Staphylococcus aureus 209P
[27] = test system: Staphylococcus aureus ATCC 33591
[28] = test system: Candida albicans C627
[29] = test system: Enterococcus faecium mic80
[30] = test system: Escherichia coli ESBL 63103
[31] = test system: Pseudomonas aeruginosa 213
[32] = test system: Pseudomonas aeruginosa H103
[33] = test system: Pseudomonas aeruginosa LES400
[34] = test system: Staphylococcus aureus C623
[35] = test system: Bacillus subtilis
[36] = test system: Enterococcus faecalis VR
[37] = test system: Pseudomonas aeruginosa
[38] = test system: Salmonella typhimurium
[39] = test system: Staphylococcus aureus MR
[40] = test system: Staphylococcus aureus
[41] = test system: Staphylococcus epidermidis

- MIC [28]: 2.72 µM (≈ 4 µg/mL)
- MIC [29]: 21.7 µM (≈ 32 µg/mL)
- MIC [30]: 10.9 µM (≈ 16 µg/mL)
- MIC [31]: 21.7 µM (≈ 32 µg/mL)
- MIC [32]: 2.72 µM (≈ 4 µg/mL)
- MIC [33]: 21.7 µM (≈ 32 µg/mL)
- MIC [15]: 5.43 µM (≈ 8 µg/mL)
- MIC [34]: 2.72 µM (≈ 4 µg/mL)
SMILES: CC[C@H](C)[C@H](NC(=O)[C@H](Cc1c[nH]c2ccccc12)NC(=O)[C@H](CCCN=C(N)N)NC(=O)[C@H](Cc1c[nH]c2ccccc12)NC(=O)[C@H](Cc1c[nH]c2ccccc12)NC(=O)[C@H](CCCN=C(N)N)NC(=O)[C@H](CCCCN)NC(=O)[C@H](Cc1c[nH]c2ccccc12)NC(=O)[C@@H](N)CCCN=C(N)N)C(=O)O [RWKRWWRWI]

- MIC [35]: 0.5 µM (≈ 1.24 µg/mL)
- MIC [36]: 1 µM (≈ 2.47 µg/mL)
- MIC [20]: 1 µM (≈ 2.47 µg/mL)
- MIC [37]: 2 µM (≈ 4.95 µg/mL)
- MIC [38]: 0.5 µM (≈ 1.24 µg/mL)
- MIC [39]: 0.707 µM (≈ 1.75 µg/mL)
- MIC [40]: 1 µM (≈ 2.47 µg/mL)
- MIC [41]: 2 µM (≈ 4.95 µg/mL)
SMILES: CC(C)C[C@H](NC(=O)CNC(=O)[C@H](C)NC(=O)[C@H](CCCN=C(N)N)NC(=O)[C@H](CO)NC(=O)[C@H](CO)NC(=O)[C@H](CCCN=C(N)N)NC(=O)[C@@H](N)[C@@H](C)O)C(=O)N[C@@H](CCC(N)=O)C(=O)N[C@@H](Cc1c[nH]c2ccccc12)C(=O)N1CCC[C@H]1C(=O)N[C@H](C(=O)NCC(=O)N[C@@H](CCCN=C(N)N)C(=O)N[C@H](C(=O)N[C@@H](Cc1cnc[nH]1)C(=O)N[C@@H](CCCN=C(N)N)C(=O)N[C@@H](CC(C)C)C(=O)N[C@@H](CC(C)C)C(=O)N[C@@H](CCCN=C(N)N)C(=O)N[C@@H](CCCCN)C(=O)O)C(C)C)C(C)C [TRSSRAGLQWPVGRVHRLLRK]

Further lines, the molecule ahead of its results:

SMILES: CC[C@H](C)[C@H](NC(=O)[C@H](CCCCN)NC(=O)[C@H](CC(N)=O)NC(=O)[C@H](CCCCN)NC(=O)[C@H](CC(C)C)NC(=O)[C@H](Cc1ccc(O)cc1)NC(=O)[C@H](CCC(N)=O)NC(=O)[C@H](CCCN=C(N)N)NC(=O)[C@@H](NC(=O)[C@@H](NC(=O)[C@H](CCCCN)NC(=O)[C@H](CCCCN)NC(=O)CNC(=O)[C@H](C)N)[C@@H](C)O)[C@@H](C)CC)C(=O)N[C@@H](CCCCN)C(=O)N[C@@H](CCCCN)C(=O)N[C@@H](CCCCN)C(=O)NCC(=O)N[C@@H](CCCN=C(N)N)C(=O)N[C@@H](CCCCN)C(=O)N[C@@H](Cc1c[nH]c2ccccc12)C(=O)N[C@H](C(=O)N[C@H](C(=O)N[C@@H](C)C(=O)N[C@@H](Cc1c[nH]c2ccccc12)C(=O)O)[C@@H](C)CC)C(C)C [AGKKTIRQYLKNKIKKKGRKWVIAW]
- MIC [1]: 8 µM (≈ 24.3 µg/mL)
- MIC [2]: 2 µM (≈ 6.09 µg/mL)

SMILES: CC(C)C[C@H](NC(=O)[C@H](CC(C)C)NC(=O)[C@H](CC(C)C)NC(=O)[C@@H]1CCCN1C(=O)[C@H](CC(C)C)NC(=O)[C@@H](N)Cc1ccccc1)C(=O)N[C@@H](C)C(=O)NCC(=O)N[C@@H](CC(C)C)C(=O)N1CCC[C@H]1C(=O)N[C@@H](CCCCN)C(=O)N[C@@H](Cc1ccccc1)C(=O)N[C@@H](CC(C)C)C(=O)N[C@H]1CSSC[C@@H](C(=O)O)NC(=O)[C@H](CCCCN)NC(=O)[C@H](CCCCN)NC(=O)[C@H](Cc2ccccc2)NC(=O)[C@H](C(C)C)NC(=O)[C@H](CC(C)C)NC1=O [FLPLLLAGLPKFLCLVFKKC]
- MIC [3]: 16 µM (≈ 36.2 µg/mL)
- MIC [4]: ≥ 512 µM
- MIC [5]: 16 µM (≈ 36.2 µg/mL)
- MIC [6]: 16 µM (≈ 36.2 µg/mL)

SMILES: CC[C@H](C)[C@H](NC(=O)CNC(=O)[C@H](CCCN=C(N)N)NC(=O)[C@@H](NC(=O)[C@H](CC(C)C)NC(=O)[C@H](CO)NC(=O)CNC(=O)[C@@H](NC(=O)[C@@H](N)CC(C)C)[C@@H](C)CC)C(C)C)C(=O)N[C@@H](CC(C)C)C(=O)N1CCC[C@H]1C(=O)N[C@@H](CC(C)C)C(=O)N[C@@H](Cc1ccccc1)C(N)=O [LIGSLVRGILPLF]
- MIC [7]: ≥ 183 µM
- MIC [8]: 183 µM (≈ 256 µg/mL)
- MIC [9]: ≥ 183 µM
- MIC [10]: ≥ 183 µM
- MIC [11]: ≥ 183 µM
- MIC [12]: 183 µM (≈ 256 µg/mL)
- MIC [13]: 91.6 µM (≈ 128 µg/mL)
- MIC [14]: 183 µM (≈ 256 µg/mL)
- MIC [15]: 45.8 µM (≈ 64 µg/mL)
- MIC [16]: ≥ 45.8 µM
- MIC [17]: ≥ 183 µM

SMILES: CC(C)[C@@H]1NC(=O)CNC(=O)[C@H](CCCN=C(N)N)NC(=O)[C@H](C(C)C)NC(=O)[C@H](CCCN=C(N)N)NC(=O)[C@H](C)NC(=O)[C@H](Cc2ccc(O)cc2)NC(=O)[C@H](C(C)C)NC(=O)[C@@H](NC(=O)[C@H](Cc2c[nH]c3ccccc23)NC(=O)[C@@H](N)CCCN=C(N)N)CSSC[C@@H](C(=O)N[C@@H](Cc2c[nH]c3ccccc23)C(=O)O)NC(=O)[C@H](CCCN=C(N)N)NC(=O)[C@H](CCCN=C(N)N)NC(=O)[C@H](Cc2ccc(O)cc2)NC(=O)[C@H](CCCN=C(N)N)NC1=O [RWCVYARVRGVRYRRCW]
- MIC [18]: 1 µM and 0.5 µM
- MIC [19]: 1.56 µM (≈ 3.56 µg/mL)
- MIC [20]: 1 µM (≈ 2.28 µg/mL)
- MIC [21]: 1 µM and 2 µM
- MIC [22]: 2 µM (≈ 4.57 µg/mL)
- MIC [23]: 2 µM and 4 µM
- MIC [24]: 4 µM (≈ 9.13 µg/mL)
- MIC [25]: 6.25 µM (≈ 14.3 µg/mL)
- MIC [26]: 1.56 µM (≈ 3.56 µg/mL)
- MIC [27]: 0.06 µM (≈ 0.137 µg/mL)
